According to US20150105252A1, “SUBSTITUTED PYRAZOLES AS HERBICIDES” (E I DU PONT DE NEMOURS AND COMPANY, priority 2013, published 2015):

How the values were obtained:
rice = assay: Test B flood; type: in vivo, Oryza sativa; conditions: 250 g ai/ha, visual rating on 0 to 100 scale (0 no effect, 100 complete control), 13 to 15 days
In short: (§1)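 Plants were grown to the 2-leaf stage and pots flooded to 3 cm above soil. Compounds were applied directly into the paddy water, with depth kept for the test. After 13–15 days in greenhouse, response was rated visually against controls on a 0 (no effect) to 100 (complete control) scale.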

barnyardgrass = assay: Test B flood; type: in vivo, Echinochloa crus-galli; conditions: 250 g ai/ha, visual rating on 0 to 100 scale (0 no effect, 100 complete control), 13 to 15 days
In short: as §1

blackgrass = assay: Test C preemergence; type: in vivo, Alopecurus myosuroides; conditions: preemergence
In short: (§2)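 Seeds sown in loam–sand blend and treated preemergence with test chemicals in non-phytotoxic solvent with surfactant; postemergence plants in peat-based medium, treated at 2–18 cm (1- to 4-leaf stage). Greenhouse 13 to 15 days, then visual rating versus controls, 0 (no effect) to 100 (complete control).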

wheat = assay: Test C preemergence; type: in vivo, Triticum aestivum
In short: as §2

lambsquarters = assay: Test C preemergence; type: in vivo, Chenopodium album
In short: as §2

nutsedge, yellow [1] = assay: Test C preemergence; type: in vivo, Cyperus esculentus
In short: as §2

ryegrass, Italian = assay: Test C postemergence; type: in vivo, Lolium multiflorum; conditions: postemergence
In short: as §2

foxtail, giant = assay: Test C postemergence; type: in vivo, Setaria faberii
In short: as §2

johnsongrass = assay: Test C postemergence; type: in vivo, Sorghum halepense
In short: as §2

morningglory = assay: Test C postemergence; type: in vivo, Ipomoea coccinea
In short: as §2

nutsedge, yellow [2] = assay: Test C postemergence; type: in vivo, Cyperus esculentus
In short: as §2

pigweed = assay: Test C postemergence; type: in vivo, Amaranthus retroflexus; conditions: postemergence
In short: as §2

oat, wild = assay: Test C postemergence; type: in vivo, Avena fatua
In short: as §2

[3] = Preemergence, rate head not shown (block before 16 g ai/ha), scale 0 to 100
[4] = preemergence, 62 g ai/ha, scale 0 to 100 (0 no effect, 100 complete control), 13 to 15 days
[5] = preemergence, 125 g ai/ha, 13 to 15 days, scale 0 to 100, 0 = no effect, 100 = complete control
[6] = preemergence, 250 g ai/ha, scale 0 to 100, 0 is no effect, 100 is complete control
[7] = 250 g ai/ha, scale 0 to 100 (0 no effect, 100 complete control)
[8] = 125 g ai/ha, scale 0 to 100, 0 no effect, 100 complete control
[9] = Postemergence, 31 g ai/ha, visually evaluated after 13 to 15 days
[10] = postemergence, 62 g ai/ha, scale 0 to 100
[11] = postemergence, 250 g ai/ha, scale 0 to 100 (0 no effect, 100 complete control)
[12] = postemergence, 125 g ai/ha, scale 0 to 100, 0 no effect, 100 complete control

## CCc1cc(C(=O)NCC(F)(F)F)nn1Cc1ccnc(Br)c1 [Compound 224]
rice
  Plant response rating, Rice: 20
barnyardgrass
  Plant response rating, Barnyardgrass: 20
blackgrass; 31 g ai/ha, visual rating, scale 0 to 100 (0 no effect, 100 complete control), 13 to 15 days
  Blackgrass plant response rating: 80
blackgrass; 62 g ai/ha, scale 0 to 100 (0 no effect, 100 complete control), 13 to 15 days
  Blackgrass plant response rating: 100
blackgrass; 125 g ai/ha, 13 to 15 days, scale 0 to 100, 0 = no effect, 100 = complete control
  Plant response rating, Blackgrass: 80
blackgrass; 250 g ai/ha, scale 0 to 100, 0 is no effect, 100 is complete control
  Blackgrass plant response rating: 90
wheat; [3]
  Plant response rating, Wheat: 0
wheat; [4]
  Wheat plant response rating: 0
wheat; [5]
  Plant response rating, Wheat: 10
wheat; [6]
  Wheat plant response rating: 60
lambsquarters; [3]
  Plant response rating, Lambsquarters: 100
lambsquarters; [4]
  Lambsquarters plant response rating: 100
lambsquarters; [5]
  Plant response rating, Lambsquarters: 100
lambsquarters; [6]
  Lambsquarters plant response rating: 100
nutsedge, yellow [1]; [3]
  Plant response rating, Nutsedge, Yellow: 85
nutsedge, yellow [1]; [4]
  Nutsedge, Yellow plant response rating: 80
nutsedge, yellow [1]; [5]
  Plant response rating, Nutsedge, Yellow: 70
nutsedge, yellow [1]; [6]
  Nutsedge, Yellow plant response rating: 90
ryegrass, Italian; [7]
  Plant response rating, Ryegrass, Italian: 5
ryegrass, Italian; [8]
  Plant response rating, Ryegrass, Italian: 5
foxtail, giant; [9]
  Plant response rating (scale of 0 to 100 where 0 is no effect and 100 is complete control), Foxtail, Giant: 5
foxtail, giant; [10]
  Foxtail, Giant plant response rating: 5
foxtail, giant; [11]
  Plant response rating, Foxtail, Giant: 5
foxtail, giant; [12]
  Plant response rating, Foxtail, Giant: 5
johnsongrass; [9]
  Plant response rating (scale of 0 to 100 where 0 is no effect and 100 is complete control), Johnsongrass: 20
johnsongrass; [10]
  Johnsongrass plant response rating: 5
johnsongrass; [11]
  Plant response rating, Johnsongrass: 5
johnsongrass; [12]
  Plant response rating, Johnsongrass: 5
morningglory; [9]
  Plant response rating (scale of 0 to 100 where 0 is no effect and 100 is complete control), Morningglory: 25
morningglory; [10]
  Morningglory plant response rating: 20
morningglory; [11]
  Plant response rating, Morningglory: 65
morningglory; [12]
  Plant response rating, Morningglory: 25
nutsedge, yellow [2]; [9]
  Plant response rating (scale of 0 to 100 where 0 is no effect and 100 is complete control), Nutsedge, Yellow: 0
nutsedge, yellow [2]; [10]
  Nutsedge, Yellow plant response rating: 0
nutsedge, yellow [2]; [11]
  Plant response rating, Nutsedge, Yellow: 5
nutsedge, yellow [2]; [12]
  Plant response rating, Nutsedge, Yellow: 5
pigweed; 62 g ai/ha, scale 0 to 100
  Pigweed plant response rating: 50
pigweed; [7]
  Plant response rating, Pigweed: 75
pigweed; [8]
  Plant response rating, Pigweed: 50
oat, wild; [9]
  Plant response rating (scale of 0 to 100 where 0 is no effect and 100 is complete control), Oat, Wild: 5
oat, wild; [10]
  Oat, Wild plant response rating: 5
oat, wild; [11]
  Plant response rating, Oat, Wild: 10
oat, wild; [12]
  Plant response rating, Oat, Wild: 10
